For data set [1], the system named is Liver. As to conditions: human, microsomes.
Data set [2] is described as follows: physchem. As to conditions: PAMPA, pH 7.4.
Data set [3] can be described thus: in vitro. As to conditions: mouse, liver microsomes. Background: Liver microsomes are vesicles of endoplasmic reticulum, rich in cytochrome P450 enzymes.

In turn, `CNC(=O)c1cnc(Nc2ccc(OC)c(F)c2)cc1N[C@@H](c1ccccc1)[C@H](O)CO` gave a Stability in data set [1] of 80%. In data set [2], this compound gave a Papp of 6.3 ×10⁻⁶ cm/s. Besides, the amount remaining at 10 min in data set [3] is 20%.

`CNC(=O)c1cnc(Nc2ccc3ncsc3c2)cc1N[C@@H](c1ccccc1)[C@H](O)CO` displayed a Stability in data set [1] of 90%. The same compound gave a Papp in data set [2] of 1.9 ×10⁻⁶ cm/s. Also, the fraction remaining at 10 min in data set [3] is 21 to 31%.

By Papp is commonly meant the rate of passage across a membrane or cell layer, normalised by area and donor concentration. A low value points to slow passage. As a reminder, the fraction remaining is what is left of the initial amount, in per cent. A higher fraction remaining goes with greater stability.
